Measurements published in patent US12570631B2, “Substituted N-(4-(pyrimidin and pyridin-4-yl)benzylcarboxamides and its use for treating disorders responsive to inhibition of Btk” (BIOGEN MA INC., priority 2019, dated 2026).
pIC50: −log10 of the molar value. Read-outs that look alike come from different tables or passages of the source.

What was measured:
[1] = tested on: CD69 expression on CD19+ B cells in human whole blood; assay: In vitro whole blood CD69 assay; format: cell-based; settings: B-cell
BTK = BTK (Homo sapiens (Human), UniProt Q06187); assay: In vitro BTK kinase assay: Btk-PolyGAT-LS assay; format: biochemical; settings: ATP 10 μM, polyGAT 100 nM, BTK 0.25 nM, 30 minutes
BTK, sequence (Q06187 whole entry): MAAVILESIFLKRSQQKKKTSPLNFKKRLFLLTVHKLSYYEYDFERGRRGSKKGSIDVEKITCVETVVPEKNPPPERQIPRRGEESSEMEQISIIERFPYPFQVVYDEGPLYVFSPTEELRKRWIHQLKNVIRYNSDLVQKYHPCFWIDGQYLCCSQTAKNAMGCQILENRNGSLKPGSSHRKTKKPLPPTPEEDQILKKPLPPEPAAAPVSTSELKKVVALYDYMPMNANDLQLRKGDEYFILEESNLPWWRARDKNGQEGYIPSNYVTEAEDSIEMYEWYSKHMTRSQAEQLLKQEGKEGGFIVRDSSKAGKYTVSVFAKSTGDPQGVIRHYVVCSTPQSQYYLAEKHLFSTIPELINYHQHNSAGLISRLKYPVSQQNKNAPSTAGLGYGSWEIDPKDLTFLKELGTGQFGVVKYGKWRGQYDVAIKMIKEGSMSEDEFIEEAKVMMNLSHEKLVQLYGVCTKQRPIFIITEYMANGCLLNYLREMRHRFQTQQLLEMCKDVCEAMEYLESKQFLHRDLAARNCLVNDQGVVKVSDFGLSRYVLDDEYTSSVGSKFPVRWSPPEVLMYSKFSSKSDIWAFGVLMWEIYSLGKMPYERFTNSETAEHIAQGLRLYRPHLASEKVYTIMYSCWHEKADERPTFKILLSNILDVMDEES

[2] = Whole Blood CD69 inhibition, human heparinized blood, anti-human IgD stimulation, CD19+ B cells expressing CD69, read-out: IC50

C=CC(=O)N1CC[C@@H](Oc2cnccc2-c2ccc(CNC(=O)c3cn(C(C)(C)C)nn3)c(C)c2)C1 (single isomer, unassigned) [Example 35]
pIC50 [1, 2]: < 6.00 | pIC50 (BTK): < 8.00

C=CC(=O)N1CC[C@H](Oc2cnccc2-c2ccc(CNC(=O)c3cn(C(C)(C)C)nn3)c(C)c2)C1 (single isomer, unassigned) [Example 36]
pIC50 [1, 2]: < 6.00 | pIC50 (BTK): 8.00 to 9.00

C=CC(=O)N(C)CCOc1c(N)ncnc1-c1ccc(CNC(=O)c2nnc(C(C)(C)C)o2)c(C)c1 [Example 1, N-(4-(6-amino-5-(2-(N-methylacrylamido)ethoxy)pyrimidin-4-yl)-2-methylbenzyl)-5-(tert-butyl)-1,3,4-oxadiazole-2-carboxamide]
pIC50 ([1]; Homo sapiens): > 7.00 | pIC50 (BTK): > 9.00

C=CC(=O)N(C)CCOc1c(N)ncnc1-c1ccc(CNC(=O)c2noc(C(C)(C)C)n2)c(C)c1 [Example 2, N-(4-(6-amino-5-(2-(N-methylacrylamido)ethoxy)pyrimidin-4-yl)-2-methylbenzyl)-5-(tert-butyl)-1,2,4-oxadiazole-3-carboxamide]
pIC50 ([1]; Homo sapiens): > 7.00 | pIC50 (BTK): > 9.00

C=CC(=O)N(C)CCOc1cncnc1-c1ccc(CNC(=O)c2noc(C(C)(C)C)n2)c(C)c1 [Example 3, 5-(tert-butyl)-N-(2-methyl-4-(5-(2-(N-methylacrylamido)ethoxy)-pyrimidin-4-yl)benzyl)-1,2,4-oxadiazole-3-carboxamide]
pIC50 [1, 2]: > 7.00 | pIC50 (BTK): > 9.00

C=CC(=O)N(C)CCOc1cnccc1-c1ccc(CNC(=O)c2noc(C(C)(C)C)n2)c(C)c1 [Example 4, 5-(tert-butyl)-N-(2-methyl-4-(3-(2-(N-methylacrylamido)ethoxy)pyridin-4-yl)benzyl)-1,2,4-oxadiazole-3-carboxamide]
pIC50 [1, 2]: > 7.00 | pIC50 (BTK): > 9.00

C=CC(=O)N(C)CCOc1cnccc1-c1ccc(CNC(=O)c2noc(C(C)(C)C)n2)c(C)c1F [Example 5, 5-(tert-butyl)-N-(3-fluoro-2-methyl-4-(3-(2-(N-methylacrylamido)ethoxy)pyridin-4-yl)benzyl)-1,2,4-oxadiazole-3-carboxamide]
pIC50 [1, 2]: > 7.00 | pIC50 (BTK): > 9.00

C=CC(=O)N(C)CCOc1c(N)ncnc1-c1ccc(CN2CCc3c(cnn3C(C)(C)C)C2=O)c(C)c1 [Example 6, N-(2-((4-amino-6-(4-((1-(tert-butyl)-4-oxo-1,4,6,7-tetrahydro-5H-pyrazolo[4,3-c]pyridin-5-yl)methyl)-3-methylphenyl)pyrimidin-5-yl)oxy)ethyl)-N-methylacrylamide]
pIC50 [1, 2]: > 7.00 | pIC50 (BTK): > 9.00

C=CC(=O)N(C)CCOc1c(N)ncnc1-c1ccc(CNC(=O)c2nc(C(C)(C)C)no2)c(C)c1 [Example 7, N-(4-(6-amino-5-(2-(N-methylacrylamido)ethoxy)pyrimidin-4-yl)-2-methylbenzyl)-3-(tert-butyl)-1,2,4-oxadiazole-5-carboxamide]
pIC50 [1, 2]: > 7.00 | pIC50 (BTK): > 9.00

C=CC(=O)N(C)CCOc1c(N)ncnc1-c1ccc(CNC(=O)c2cn(C(C)(C)C)nn2)c(C)c1 [Example 8, N-(4-(6-amino-5-(2-(N-methylacrylamido)ethoxy)pyrimidin-4-yl)-2-methylbenzyl)-1-(tert-butyl)-1H-1,2,3-triazole-4-carboxamide]
pIC50 [1, 2]: > 7.00 | pIC50 (BTK): > 9.00

C=CC(=O)N(C)CCOc1c(N)ncnc1-c1ccc(CN2CCN(CC(C)(C)C)CC2=O)c(C)c1 [Example 9, N-(2-((4-amino-6-(3-methyl-4-((4-neopentyl-2-oxopiperazin-1-yl)methyl)phenyl)pyrimidin-5-yl)oxy)ethyl)-N-methylacrylamide]
pIC50 [1, 2]: > 7.00 | pIC50 (BTK): > 9.00

C=CC(=O)N(C)CCOc1c(N)ncnc1-c1ccc(CNC(=O)c2cnn(C(C)(C)C)c2)c(C)c1 [Example 10, N-(4-(6-amino-5-(2-(N-methylacrylamido)ethoxy)pyrimidin-4-yl)-2-methylbenzyl)-1-(tert-butyl)-1H-pyrazole-4-carboxamide]
pIC50 [1, 2]: > 7.00 | pIC50 (BTK): > 9.00

C=CC(=O)N(C)CCOc1c(N)ncnc1-c1ccc(CN2Cc3cc(C4CC4)sc3C2=O)c(C)c1 [Example 11, N-(2-((4-amino-6-(4-((2-cyclopropyl-6-oxo-4,6-dihydro-5H-thieno[2,3-c]pyrrol-5-yl)methyl)-3-methylphenyl)pyrimidin-5-yl)oxy)ethyl)-N-methylacrylamide]
pIC50 [1, 2]: 6.00 to 7.00 | pIC50 (BTK): > 9.00

C=CC(=O)N(C)CCOc1cnccc1-c1ccc(CN2CCc3c(cnn3C(C)(C)C)C2=O)c(C)c1 [Example 12, N-(2-((4-(4-((1-(tert-butyl)-4-oxo-1,4,6,7-tetrahydro-5H-pyrazolo[4,3-c]pyridin-5-yl)methyl)-3-methylphenyl)pyridin-3-yl)oxy)ethyl)-N-methylacrylamide]
pIC50 [1, 2]: 6.00 to 7.00 | pIC50 (BTK): > 9.00

C=CC(=O)N(C)CCOc1cnccc1-c1ccc(CNC(=O)c2noc(C(C)(C)C)n2)cc1F [Example 13, 5-(tert-butyl)-N-(3-fluoro-4-(3-(2-(N-methylacrylamido)ethoxy)pyridin-4-yl)benzyl)-1,2,4-oxadiazole-3-carboxamide]
pIC50 (BTK): > 9.00

C=CC(=O)N(C)CCOc1cnccc1-c1ccc(CNC(=O)c2noc(C(C)(C)C)n2)c(C(F)(F)F)c1 [Example 14, 5-(tert-butyl)-N-(4-(3-(2-(N-methylacrylamido)ethoxy)pyridin-4-yl)-2-(trifluoromethyl)benzyl)-1,2,4-oxadiazole-3-carboxamide]
pIC50 (BTK): > 9.00

C=CC(=O)N(C)CCOc1cnccc1-c1ccc(CNC(=O)c2ccn(C(C)(C)C)n2)c(Cl)c1F [Example 15, 1-(tert-butyl)-N-(2-chloro-3-fluoro-4-(3-(2-(N-methylacrylamido)ethoxy)pyridin-4-yl)benzyl)-1H-pyrazole-3-carboxamide]
pIC50 (BTK): 8.00 to 9.00

C=CC(=O)N(C)CCOc1cnccc1-c1ccc(CNC(=O)c2cc(C(C)(C)C)on2)c(C)c1 [Example 16, 5-(tert-butyl)-N-(2-methyl-4-(3-(2-(N-methylacrylamido)ethoxy)pyridin-4-yl)benzyl)isoxazole-3-carboxamide]
pIC50 (BTK): > 9.00

C=CC(=O)N(C)CCOc1cnccc1-c1ccc(CNC(=O)c2cc(C(C)(C)C)on2)c(F)c1F [Example 17, 5-(tert-butyl)-N-(2,3-difluoro-4-(3-(2-(N-methylacrylamido)ethoxy)pyridin-4-yl)benzyl)isoxazole-3-carboxamide]
pIC50 (BTK): > 9.00

C=CC(=O)N(C)CC(=O)Nc1cncnc1-c1ccc(CNC(=O)c2cn(C(C)(C)C)nn2)c(C)c1 [Example 29, 1-(tert-butyl)-N-(2-methyl-4-(5-(2-(N-methylacrylamido)acetamido)pyrimidin-4-yl)benzyl)-1H-1,2,3-triazole-4-carboxamide]
pIC50 (BTK): > 9.00

C=CC(=O)NCC(=O)Nc1cncnc1-c1ccc(CNC(=O)c2cn(C(C)(C)C)nn2)c(C)c1 [Example 30, N-(4-(5-(2-acrylamidoacetamido)pyrimidin-4-yl)-2-methylbenzyl)-1-(tert-butyl)-1H-1,2,3-triazole-4-carboxamide]
pIC50 (BTK): 8.00 to 9.00

C=CC(=O)N1CCCC[C@@H]1C(=O)Nc1cnccc1-c1ccc(CNC(=O)c2noc(C(C)(C)C)n2)c(C)c1 [Example 31, (R)-N-(4-(3-(1-acryloylpiperidine-2-carboxamido)pyridin-4-yl)-2-methylbenzyl)-5-(tert-butyl)-1,2,4-oxadiazole-3-carboxamide]
pIC50 [1, 2]: > 7.00 | pIC50 (BTK): > 9.00

C=CC(=O)N1CCCC[C@H]1C(=O)Nc1cnccc1-c1ccc(CNC(=O)c2noc(C(C)(C)C)n2)c(C)c1 [Example 32, (S)-N-(4-(3-(1-acryloylpiperidine-2-carboxamido)pyridin-4-yl)-2-methylbenzyl)-5-(tert-butyl)-1,2,4-oxadiazole-3-carboxamide]
pIC50 [1, 2]: > 7.00 | pIC50 (BTK): > 9.00

C=CC(=O)N1CC(Oc2cnccc2-c2ccc(CNC(=O)c3cn(C(C)(C)C)nn3)c(C)c2)C1 [Example 33, N-(4-(3-((1-acryloylazetidin-3-yl)oxy)pyridin-4-yl)-2-methylbenzyl)-1-(tert-butyl)-1H-1,2,3-triazole-4-carboxamide]
pIC50 ([1]; Homo sapiens): < 6.00 | pIC50 (BTK): 8.00 to 9.00

C=CC(=O)N1CCC(Oc2cnccc2-c2ccc(CNC(=O)c3cn(C(C)(C)C)nn3)c(C)c2)C1 (stereo not shown) [Example 34, N-(4-(3-((1-acryloylpyrrolidin-3-yl)oxy)pyridin-4-yl)-2-methylbenzyl)-1-(tert-butyl)-1H-1,2,3-triazole-4-carboxamide]
pIC50 (BTK): < 8.00

C=CC(=O)N1CCC(Oc2cnccc2-c2ccc(CNC(=O)c3cn(C(C)(C)C)nn3)c(C)c2)CC1 [Example 37, N-(4-(3-((1-acryloylpiperidin-4-yl)oxy)pyridin-4-yl)-2-methylbenzyl)-1-(tert-butyl)-1H-1,2,3-triazole-4-carboxamide]
pIC50 [1, 2]: < 6.00 | pIC50 (BTK): > 9.00

C=CC(=O)N1CCCC(Oc2cnccc2-c2ccc(CNC(=O)c3cn(C(C)(C)C)nn3)c(C)c2)C1 (stereo not shown) [Example 38, N-(4-(3-((1-acryloylpiperidin-3-yl)oxy)pyridin-4-yl)-2-methylbenzyl)-1-(tert-butyl)-1H-1,2,3-triazole-4-carboxamide]
pIC50 [1, 2]: < 6.00 | pIC50 (BTK): < 8.00

C#CC(=O)N1CCCC1COc1cnccc1-c1ccc(CNC(=O)c2cn(C(C)(C)C)nn2)c(C)c1F (stereo not shown) [Example 48, 1-(tert-butyl)-N-(3-fluoro-2-methyl-4-(3-((1-propioloylpyrrolidin-2-yl)methoxy)pyridin-4-yl)benzyl)-1H-1,2,3-triazole-4-carboxamide]
pIC50 (BTK): 8.00 to 9.00

C=CC(=O)N1CCC(COc2cnccc2-c2ccc(CNC(=O)c3cn(C(C)(C)C)nn3)c(C)c2F)C1 (stereo not shown) [Example 51, N-(4-(3-((1-acryloylpyrrolidin-3-yl)methoxy)pyridin-4-yl)-3-fluoro-2-methylbenzyl)-1-(tert-butyl)-1H-1,2,3-triazole-4-carboxamide]
pIC50 (BTK): > 9.00

C=CC(=O)N1CC[C@H]1COc1cnccc1-c1ccc(CNC(=O)c2ccc(C(F)(F)F)nc2)c(C)c1 [Example 52, (S)-N-(4-(3-((1-acryloylazetidin-2-yl)methoxy)pyridin-4-yl)-2-methylbenzyl)-6-(trifluoromethyl)nicotinamide]
pIC50 (BTK): < 8.00
